Laboratory results published in article PMC5218480 (PLoS ONE, 2017).

System: MV-4-11 cells
Assay: Gene expression microarray analysis (Affymetrix PrimeView) and GSEA
Assay type: cell-based, human
Parameters: RFU PODN (11730768_x_at) / Fold change /veh PODN (11730768_x_at) / RFU LINC00158 (11744669_a_at) / Fold change /veh LINC00158 (11744669_a_at) / RFU DUSP10 (11751237_a_at) / Fold change /veh DUSP10 (11751237_a_at) / RFU ID3 (11757404_x_at) / Fold change /veh ID3 (11757404_x_at) / RFU PLEKHG5 (11737974_s_at) / Fold change /veh PLEKHG5 (11737974_s_at) / RFU LRRC4B (11730491_at) / Fold change /veh LRRC4B (11730491_at) / RFU GIMAP4 (11747438_a_at) / Fold change /veh GIMAP4 (11747438_a_at) / RFU KRT8 (11758183_x_at) / Fold change /veh KRT8 (11758183_x_at) / RFU CNN1 (11734310_a_at) / Fold change /veh CNN1 (11734310_a_at) / RFU VPS37D (11726825_at) / Fold change /veh VPS37D (11726825_at) / RFU C10orf10 (11716522_x_at) / Fold change /veh C10orf10 (11716522_x_at) / RFU KIR2DL2 /// KIR2DL4 /// KIR2DL5A /// KIR2DL5B /// KIR2DS1 /// KIR2DS2 /// KIR2DS3 /// KIR2DS4 /// KIR3DL3 /// KIR3DL3 /// KIR3DS1 (11738374_at) / Fold change /veh KIR2DL2 /// KIR2DL4 /// KIR2DL5A /// KIR2DL5B /// KIR2DS1 /// KIR2DS2 /// KIR2DS3 /// KIR2DS4 /// KIR3DL3 /// KIR3DL3 /// KIR3DS1 (11738374_at) / RFU C1QL1 (11718748_at) / Fold change /veh C1QL1 (11718748_at) / RFU TMPRSS4 (11747572_a_at) / Fold change /veh TMPRSS4 (11747572_a_at) / RFU HAMP (11756126_x_at) / Fold change /veh HAMP (11756126_x_at) / RFU RNFT2 (11725882_a_at) / Fold change /veh RNFT2 (11725882_a_at) / RFU NR4A2 (11747474_a_at) / Fold change /veh NR4A2 (11747474_a_at) / RFU ABCC12 (11746883_a_at) / Fold change /veh ABCC12 (11746883_a_at) / RFU TMEM136 (11760407_x_at) / Fold change /veh TMEM136 (11760407_x_at) / RFU CLDN22 /// WWC2 (11732394_at) / Fold change /veh CLDN22 /// WWC2 (11732394_at) / RFU HLA-DPB1 (11760878_x_at) / Fold change /veh HLA-DPB1 (11760878_x_at) / RFU SPINT1 (11716480_a_at) / Fold change /veh SPINT1 (11716480_a_at) / RFU GAP43 (11754022_s_at) / Fold change /veh GAP43 (11754022_s_at) / RFU A4GNT (11735810_at) / Fold change /veh A4GNT (11735810_at) / RFU PRB3 (11715151_x_at) / Fold change /veh PRB3 (11715151_x_at) / RFU TUBB4B (11761932_at) / Fold change /veh TUBB4B (11761932_at) / RFU CAPN14 (11732068_a_at) / Fold change /veh CAPN14 (11732068_a_at) / RFU TMCC2 (11721928_a_at) / Fold change /veh TMCC2 (11721928_a_at) / RFU IRGQ (11745062_a_at) / Fold change /veh IRGQ (11745062_a_at) / RFU FAM174B (11720279_a_at) / Fold change /veh FAM174B (11720279_a_at) / RFU TMPRSS4 (11748680_a_at) / Fold change /veh TMPRSS4 (11748680_a_at) / RFU FAM212B (11763350_a_at) / Fold change /veh FAM212B (11763350_a_at) / RFU PLEKHG5 (11743358_a_at) / Fold change /veh PLEKHG5 (11743358_a_at) / RFU ZSCAN30 (11745921_a_at) / Fold change /veh ZSCAN30 (11745921_a_at) / RFU CMKLR1 (11741424_a_at) / Fold change /veh CMKLR1 (11741424_a_at) / RFU LOC101060620 /// MAPK8IP1 (11723275_at) / Fold change /veh LOC101060620 /// MAPK8IP1 (11723275_at) / RFU SPTSSB (11747773_x_at) / Fold change /veh SPTSSB (11747773_x_at) / RFU PRSS12 (11739890_at) / Fold change /veh PRSS12 (11739890_at) / RFU BIN1 (11741810_x_at) / Fold change /veh BIN1 (11741810_x_at) / RFU WNT11 (11732464_a_at) / Fold change /veh WNT11 (11732464_a_at) / RFU C10orf10 (11716521_a_at) / Fold change /veh C10orf10 (11716521_a_at) / RFU C5orf56 (11738089_at) / Fold change /veh C5orf56 (11738089_at) / RFU CYB561 (11721691_x_at) / Fold change /veh CYB561 (11721691_x_at) / RFU ANKRD19P (11752326_a_at) / Fold change /veh ANKRD19P (11752326_a_at) / RFU OR2T12 /// OR2T33 /// OR2T8 (11738714_s_at) / Fold change /veh OR2T12 /// OR2T33 /// OR2T8 (11738714_s_at) / RFU VCAN (11748164_a_at) / Fold change /veh VCAN (11748164_a_at) / RFU JSRP1 (11732532_at) / Fold change /veh JSRP1 (11732532_at) / RFU KRTAP10-11 (11738290_x_at) / Fold change /veh KRTAP10-11 (11738290_x_at) / RFU MYO3A (11730013_a_at) / Fold change /veh MYO3A (11730013_a_at) / RFU EBF3 (11725865_a_at) / Fold change /veh EBF3 (11725865_a_at) / RFU CAMK2N1 (11719241_x_at) / Fold change /veh CAMK2N1 (11719241_x_at) / RFU C5orf56 (11738088_a_at) / Fold change /veh C5orf56 (11738088_a_at) / RFU OLFML3 (11715873_a_at) / Fold change /veh OLFML3 (11715873_a_at) / RFU LOC100653217 /// NTM (11731650_a_at) / Fold change /veh LOC100653217 /// NTM (11731650_a_at) / RFU MAPK11 (11762145_a_at) / Fold change /veh MAPK11 (11762145_a_at) / RFU FIZ1 (11724087_x_at) / Fold change /veh FIZ1 (11724087_x_at) / RFU OASL (11726364_x_at) / Fold change /veh OASL (11726364_x_at) / RFU SOX15 (11748057_x_at) / Fold change /veh SOX15 (11748057_x_at) / RFU CD79A (11719716_a_at) / Fold change /veh CD79A (11719716_a_at) / RFU HIST1H1D (11736915_at) / Fold change /veh HIST1H1D (11736915_at) / RFU CASKIN2 (11723855_a_at) / Fold change /veh CASKIN2 (11723855_a_at) / RFU LOC730098 (11760151_x_at) / Fold change /veh LOC730098 (11760151_x_at) / RFU OR4N2 (11742367_at) / Fold change /veh OR4N2 (11742367_at) / RFU PRRT2 (11749266_a_at) / Fold change /veh PRRT2 (11749266_a_at) / RFU SNX32 (11753110_a_at) / Fold change /veh SNX32 (11753110_a_at) / RFU CDHR5 (11726645_a_at) / Fold change /veh CDHR5 (11726645_a_at) / RFU RCAN1 (11760418_a_at) / Fold change /veh RCAN1 (11760418_a_at) / RFU FAM167A (11723789_a_at) / Fold change /veh FAM167A (11723789_a_at) / RFU FAM26E (11764081_at) / Fold change /veh FAM26E (11764081_at) / RFU ISYNA1 (11749810_s_at) / Fold change /veh ISYNA1 (11749810_s_at) / RFU ACY1 (11761880_at) / Fold change /veh ACY1 (11761880_at) / RFU 11764098_at / Fold change /veh 11764098_at / RFU SAMD14 (11745864_x_at) / Fold change /veh SAMD14 (11745864_x_at) / RFU NPB (11741838_a_at) / Fold change /veh NPB (11741838_a_at) / RFU TMPRSS6 (11731388_a_at) / Fold change /veh TMPRSS6 (11731388_a_at) / RFU KRTAP10-2 (11738614_at) / Fold change /veh KRTAP10-2 (11738614_at) / RFU ARHGAP8 /// PRR5-ARHGAP8 (11727945_x_at) / Fold change /veh ARHGAP8 /// PRR5-ARHGAP8 (11727945_x_at) / RFU KRTAP5-7 /// NADSYN1 (11734609_at) / Fold change /veh KRTAP5-7 /// NADSYN1 (11734609_at) / RFU RASL12 (11751679_a_at) / Fold change /veh RASL12 (11751679_a_at) / RFU CDKN2B (11736163_a_at) / Fold change /veh CDKN2B (11736163_a_at) / RFU PRF1 (11729649_at) / Fold change /veh PRF1 (11729649_at) / RFU, ZNF638 /// ZNF638-IT1 / Fold change vs veh, ZNF638 /// ZNF638-IT1 / RFU, PANK3 / Fold change vs veh, PANK3 / RFU, SH3YL1 / Fold change vs veh, SH3YL1 / RFU, ZEB2 / Fold change vs veh, ZEB2 / RFU, NRIP1 / Fold change vs veh, NRIP1 / RFU, PTTG1IP / Fold change vs veh, PTTG1IP / RFU, CAPN2 / Fold change vs veh, CAPN2 / RFU, MED14 / Fold change vs veh, MED14 / RFU, SNORA58 / Fold change vs veh, SNORA58 / RFU, C1orf63 / Fold change vs veh, C1orf63 / RFU, LRRFIP1 / Fold change vs veh, LRRFIP1 / RFU, NDUFAF7 / Fold change vs veh, NDUFAF7 / RFU, SLC12A2 / Fold change vs veh, SLC12A2 / RFU, IBTK / Fold change vs veh, IBTK / RFU, ESF1 / Fold change vs veh, ESF1 / Fold change vs veh, TMEM50B / RFU, TAOK1 / Fold change vs veh, TAOK1 / RFU, ACBD3 / Fold change vs veh, ACBD3 / RFU, TMA16 / Fold change vs veh, TMA16 / RFU, RWDD3 / Fold change vs veh, RWDD3 / RFU, BCAT1 / Fold change vs veh, BCAT1 / RFU, EDEM3 / Fold change vs veh, EDEM3 / RFU, TMEM33 / Fold change vs veh, TMEM33 / RFU, WDR75 / Fold change vs veh, WDR75 / RFU, AHCTF1 / Fold change vs veh, AHCTF1 / RFU, TFRC / Fold change vs veh, TFRC / RFU, ZDHHC17 / Fold change vs veh, ZDHHC17 / RFU, NOM1 / Fold change vs veh, NOM1 / RFU, ARL8B / Fold change vs veh, ARL8B / RFU, ZBTB11 / Fold change vs veh, ZBTB11 / RFU, TAMM41 / Fold change vs veh, TAMM41 / RFU, KIAA1704 /// LOC100996395 / Fold change vs veh, KIAA1704 /// LOC100996395 / RFU, ING1 / Fold change vs veh, ING1 / RFU, TRMT61B / Fold change vs veh, TRMT61B / RFU, FUBP3 / Fold change vs veh, FUBP3 / RFU, TP53 / Fold change vs veh, TP53 / RFU, TNKS2 / Fold change vs veh, TNKS2 / RFU, ZFP14 / Fold change vs veh, ZFP14 / RFU, ACTR2 / Fold change vs veh, ACTR2 / RFU, PPP3R1 / Fold change vs veh, PPP3R1 / RFU, PIK3R1 / Fold change vs veh, PIK3R1 / RFU, HNRNPA1 / Fold change vs veh, HNRNPA1 / RFU, RNF170 / Fold change vs veh, RNF170 / RFU, ZNF28 / Fold change vs veh, ZNF28 / RFU, RNGTT / Fold change vs veh, RNGTT / RFU, OGT / Fold change vs veh, OGT / RFU, BRD1 / Fold change vs veh, BRD1 / RFU, MARS / Fold change vs veh, MARS / RFU, ZNF655 / Fold change vs veh, ZNF655 / RFU, FAHD1 / Fold change vs veh, FAHD1 / RFU, BDP1 / Fold change vs veh, BDP1 / RFU, LRRCC1 / Fold change vs veh, LRRCC1 / RFU, ARID1A / Fold change vs veh, ARID1A / RFU, ZNF146 / Fold change vs veh, ZNF146 / RFU, ZNF330 / Fold change vs veh, ZNF330 / RFU, GPN3 / Fold change vs veh, GPN3 / RFU, C9orf123 / Fold change vs veh, C9orf123 / RFU, N4BP2L2 / Fold change vs veh, N4BP2L2 / RFU, ARFIP1 / Fold change vs veh, ARFIP1 / RFU, FAM179B / Fold change vs veh, FAM179B / RFU, BCL10 / Fold change vs veh, BCL10 / RFU, UHRF1BP1L / Fold change vs veh, UHRF1BP1L / RFU, BET1 / Fold change vs veh, BET1 / RFU, CNOT2 / Fold change vs veh, CNOT2 / RFU, ZNF268 / Fold change vs veh, ZNF268 / Fold change vs veh, ZNF507 / RFU, DGCR2 / Fold change vs veh, DGCR2 / RFU, WDSUB1 / Fold change vs veh, WDSUB1 / Fold change vs veh, HSP90B1 /// MIR3652 / RFU, ADSS / Fold change vs veh, ADSS / RFU, GK / Fold change vs veh, GK / RFU, ZNF148 / Fold change vs veh, ZNF148 / RFU, TAF9 / Fold change vs veh, TAF9 / RFU, SLC1A5 / Fold change vs veh, SLC1A5 / RFU, SLMO2 / Fold change vs veh, SLMO2 / RFU, ABCC4 / Fold change vs veh, ABCC4 / RFU, LOC101060439 /// RAP1B / Fold change vs veh, LOC101060439 /// RAP1B / RFU, RFX7 / Fold change vs veh, RFX7 / RFU, GTPBP10 / Fold change vs veh, GTPBP10 / RFU, CNEP1R1 / Fold change vs veh, CNEP1R1 / RFU, BIVM-ERCC5 /// ERCC5 / Fold change vs veh, BIVM-ERCC5 /// ERCC5 / RFU, ILF3 / Fold change vs veh, ILF3 / RFU 11762660_at / Fold change /veh 11762660_at / RFU VCAN (11757783_s_at) / Fold change /veh VCAN (11757783_s_at) / RFU DDX43 (11728927_at) / Fold change /veh DDX43 (11728927_at) / RFU KRT8 (11758188_x_at) / Fold change /veh KRT8 (11758188_x_at) / RFU NKD1 (11759106_at) / Fold change /veh NKD1 (11759106_at) / RFU SRD5A1 (11742802_a_at) / Fold change /veh SRD5A1 (11742802_a_at) / RFU TPSAB1 /// TPSB2 (11721975_s_at) / Fold change /veh TPSAB1 /// TPSB2 (11721975_s_at) / RFU GSTM3 (11746129_a_at) / Fold change /veh GSTM3 (11746129_a_at) / RFU IL23R (11737362_x_at) / Fold change /veh IL23R (11737362_x_at) / RFU TMEM51 (11727254_a_at) / Fold change /veh TMEM51 (11727254_a_at) / RFU PIWIL2 (11732686_x_at) / Fold change /veh PIWIL2 (11732686_x_at) / RFU ORM1 (11744905_x_at) / Fold change /veh ORM1 (11744905_x_at) / RFU CCDC152 (11743942_at) / Fold change /veh CCDC152 (11743942_at) / RFU ECM1 (11717891_a_at) / Fold change /veh ECM1 (11717891_a_at) / RFU IL23R (11748794_a_at) / Fold change /veh IL23R (11748794_a_at) / RFU TNFAIP8L3 (11732012_x_at) / Fold change /veh TNFAIP8L3 (11732012_x_at) / RFU MBOAT4 (11741988_at) / Fold change /veh MBOAT4 (11741988_at) / RFU 11764193_at / Fold change /veh 11764193_at / RFU TMEM53 (11763286_at) / Fold change /veh TMEM53 (11763286_at) / RFU MAGEB2 (11727129_at) / Fold change /veh MAGEB2 (11727129_at) / RFU TMEM200A (11744735_a_at) / Fold change /veh TMEM200A (11744735_a_at) / RFU CCDC152 (11751479_a_at) / Fold change /veh CCDC152 (11751479_a_at) / RFU FAM211A (11726209_a_at) / Fold change /veh FAM211A (11726209_a_at) / RFU RGS16 (11746705_a_at) / Fold change /veh RGS16 (11746705_a_at) / RFU VCAN (11755009_s_at) / Fold change /veh VCAN (11755009_s_at) / RFU RHOB (11743442_s_at) / Fold change /veh RHOB (11743442_s_at) / RFU RGS16 (11720943_a_at) / Fold change /veh RGS16 (11720943_a_at) / RFU RGS16 (11720944_at) / Fold change /veh RGS16 (11720944_at) / RFU, VPS4B / Fold change vs veh, VPS4B / RFU, CREB1 / Fold change vs veh, CREB1 / RFU, DNAJC13 / Fold change vs veh, DNAJC13 / RFU, GNAQ / Fold change vs veh, GNAQ / RFU, CDK5R1 / Fold change vs veh, CDK5R1 / RFU, ZRANB3 / Fold change vs veh, ZRANB3 / RFU, CUL4A / Fold change vs veh, CUL4A / RFU, CCNY / Fold change vs veh, CCNY / RFU, UFL1 / Fold change vs veh, UFL1 / RFU, COG3 / Fold change vs veh, COG3 / RFU, DIAPH2 / Fold change vs veh, DIAPH2 / RFU, SKA2 / Fold change vs veh, SKA2 / RFU, AFF3 / Fold change vs veh, AFF3 / RFU, LMF1 / Fold change vs veh, LMF1 / RFU, IPO11 / Fold change vs veh, IPO11 / RFU, DFFB / Fold change vs veh, DFFB / RFU, FOXP1 / Fold change vs veh, FOXP1 / RFU, CARD8 / Fold change vs veh, CARD8 / RFU, STRN3 / Fold change vs veh, STRN3 / RFU, ADK / Fold change vs veh, ADK / RFU, RASSF2 / Fold change vs veh, RASSF2 / RFU, WIPF1 / Fold change vs veh, WIPF1 / RFU, LARP1B / Fold change vs veh, LARP1B / RFU, RASA1 / Fold change vs veh, RASA1 / RFU, RB1 / Fold change vs veh, RB1 / RFU, PPFIA1 / Fold change vs veh, PPFIA1 / RFU, MAT2A / Fold change vs veh, MAT2A / RFU, CCT5 / Fold change vs veh, CCT5 / RFU, WDR92 / Fold change vs veh, WDR92 / RFU, CUX1 / Fold change vs veh, CUX1 / RFU, TTC7A / Fold change vs veh, TTC7A / RFU, TMEM135 / Fold change vs veh, TMEM135 / RFU, DEPTOR / Fold change vs veh, DEPTOR / RFU, CPM / Fold change vs veh, CPM / RFU, DNAJB6 / Fold change vs veh, DNAJB6 / RFU, CACNA2D3 / Fold change vs veh, CACNA2D3 / RFU, DTX4 / Fold change vs veh, DTX4 / RFU, TFCP2 / Fold change vs veh, TFCP2 / RFU, GMCL1 /// GMCL1P1 / Fold change vs veh, GMCL1 /// GMCL1P1 / RFU, AEBP2 / Fold change vs veh, AEBP2 / RFU, SNHG1 /// SNORD22 /// SNORD25 /// SNORD26 /// SNORD27 /// SNORD28 /// SNORD29 /// SNORD31 / Fold change vs veh, SNHG1 /// SNORD22 /// SNORD25 /// SNORD26 /// SNORD27 /// SNORD28 /// SNORD29 /// SNORD31 / Fold change (Aza/veh), C12orf56 (ProbeSet 11735607_a_at) / Fold change (ACY-1035/veh), C12orf56 (ProbeSet 11735607_a_at) / Fold change (Aza/veh), FGFR1OP (ProbeSet 11751329_s_at) / Fold change (ACY-1035/veh), FGFR1OP (ProbeSet 11751329_s_at) / Fold change (Aza/veh), VPS36 (ProbeSet 11739960_a_at) / Fold change (ACY-1035/veh), VPS36 (ProbeSet 11739960_a_at) / RFU SYPL1 (11715823_x_at) / Fold change /veh SYPL1 (11715823_x_at) / RFU IGFBP7 (11715501_s_at) / Fold change /veh IGFBP7 (11715501_s_at) / RFU REEP3 (11722064_at) / Fold change /veh REEP3 (11722064_at) / RFU IGLL1 (11728026_x_at) / Fold change /veh IGLL1 (11728026_x_at): dose or concentration left out as unconfirmed
Settings: MV-4-11 cells, 48 hours

Structure (SMILES): Nc1ccc(-c2cccs2)cc1NC(=O)c1ccc2c(c1)cc(C1CC1)n2CCN1CCOCC1 [ACY-1035]
- RFU BIN1 (11741810_x_at): 33.72 RFU
